Two compounds from ChEMBL document CHEMBL5653631, “A Potent and Selective ULK1 Inhibitor Suppresses Autophagy and Sensitizes Cancer Cells to Nutrient Stress” (iScience, 2018) can be followed below.

Test [1] deals with T1, Mitogen-activated protein kinase kinase kinase 7 (Homo sapiens) (UniProt O43318).
T1 sequence (whole entry): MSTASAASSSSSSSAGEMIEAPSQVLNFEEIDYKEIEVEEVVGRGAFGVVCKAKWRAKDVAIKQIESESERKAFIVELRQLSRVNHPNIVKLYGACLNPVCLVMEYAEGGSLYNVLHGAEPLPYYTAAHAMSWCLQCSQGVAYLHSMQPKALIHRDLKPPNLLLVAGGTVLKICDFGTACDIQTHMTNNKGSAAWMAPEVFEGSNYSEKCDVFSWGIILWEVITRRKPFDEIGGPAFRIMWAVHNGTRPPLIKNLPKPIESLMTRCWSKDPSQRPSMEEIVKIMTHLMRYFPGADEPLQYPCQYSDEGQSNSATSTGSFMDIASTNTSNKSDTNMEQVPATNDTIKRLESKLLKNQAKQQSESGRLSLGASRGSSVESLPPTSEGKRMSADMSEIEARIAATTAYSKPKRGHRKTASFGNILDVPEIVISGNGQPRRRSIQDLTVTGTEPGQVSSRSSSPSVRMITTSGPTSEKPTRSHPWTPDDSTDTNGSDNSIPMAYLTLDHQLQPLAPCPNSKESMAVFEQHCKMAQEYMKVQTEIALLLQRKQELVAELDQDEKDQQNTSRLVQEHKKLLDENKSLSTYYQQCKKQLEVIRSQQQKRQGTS
Put plainly: Inhibition of human recombinant TAK1 at 500 nM in presence of ATP by radiometric assay relative to control.

Test [2] addresses T2, G protein-coupled receptor kinase 3 (Homo sapiens) (UniProt P35626).
T2 sequence (whole entry): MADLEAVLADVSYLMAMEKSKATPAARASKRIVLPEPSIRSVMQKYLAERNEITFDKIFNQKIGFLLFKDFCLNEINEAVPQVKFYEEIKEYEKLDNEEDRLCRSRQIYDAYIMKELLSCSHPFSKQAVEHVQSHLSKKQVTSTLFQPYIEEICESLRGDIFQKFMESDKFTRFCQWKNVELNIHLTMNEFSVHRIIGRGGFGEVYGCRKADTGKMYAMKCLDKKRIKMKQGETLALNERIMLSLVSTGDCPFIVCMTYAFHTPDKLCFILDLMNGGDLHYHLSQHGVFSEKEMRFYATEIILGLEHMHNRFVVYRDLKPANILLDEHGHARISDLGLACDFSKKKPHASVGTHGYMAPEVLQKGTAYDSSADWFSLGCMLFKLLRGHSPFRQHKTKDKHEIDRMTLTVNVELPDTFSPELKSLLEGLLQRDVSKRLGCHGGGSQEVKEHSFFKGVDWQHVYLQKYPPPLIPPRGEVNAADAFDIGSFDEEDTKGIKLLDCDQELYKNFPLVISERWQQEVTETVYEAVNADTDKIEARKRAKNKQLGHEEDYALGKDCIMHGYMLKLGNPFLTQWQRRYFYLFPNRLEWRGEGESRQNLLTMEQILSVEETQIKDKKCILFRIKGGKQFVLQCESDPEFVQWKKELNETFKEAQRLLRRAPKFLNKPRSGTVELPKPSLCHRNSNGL
Description: Inhibition of human recombinant BARK2 at 500 nM related to control ULK1.

Test [3] has as its target T3, Ephrin type-B receptor 2 (Homo sapiens) (UniProt P29323).
T3 sequence (whole entry): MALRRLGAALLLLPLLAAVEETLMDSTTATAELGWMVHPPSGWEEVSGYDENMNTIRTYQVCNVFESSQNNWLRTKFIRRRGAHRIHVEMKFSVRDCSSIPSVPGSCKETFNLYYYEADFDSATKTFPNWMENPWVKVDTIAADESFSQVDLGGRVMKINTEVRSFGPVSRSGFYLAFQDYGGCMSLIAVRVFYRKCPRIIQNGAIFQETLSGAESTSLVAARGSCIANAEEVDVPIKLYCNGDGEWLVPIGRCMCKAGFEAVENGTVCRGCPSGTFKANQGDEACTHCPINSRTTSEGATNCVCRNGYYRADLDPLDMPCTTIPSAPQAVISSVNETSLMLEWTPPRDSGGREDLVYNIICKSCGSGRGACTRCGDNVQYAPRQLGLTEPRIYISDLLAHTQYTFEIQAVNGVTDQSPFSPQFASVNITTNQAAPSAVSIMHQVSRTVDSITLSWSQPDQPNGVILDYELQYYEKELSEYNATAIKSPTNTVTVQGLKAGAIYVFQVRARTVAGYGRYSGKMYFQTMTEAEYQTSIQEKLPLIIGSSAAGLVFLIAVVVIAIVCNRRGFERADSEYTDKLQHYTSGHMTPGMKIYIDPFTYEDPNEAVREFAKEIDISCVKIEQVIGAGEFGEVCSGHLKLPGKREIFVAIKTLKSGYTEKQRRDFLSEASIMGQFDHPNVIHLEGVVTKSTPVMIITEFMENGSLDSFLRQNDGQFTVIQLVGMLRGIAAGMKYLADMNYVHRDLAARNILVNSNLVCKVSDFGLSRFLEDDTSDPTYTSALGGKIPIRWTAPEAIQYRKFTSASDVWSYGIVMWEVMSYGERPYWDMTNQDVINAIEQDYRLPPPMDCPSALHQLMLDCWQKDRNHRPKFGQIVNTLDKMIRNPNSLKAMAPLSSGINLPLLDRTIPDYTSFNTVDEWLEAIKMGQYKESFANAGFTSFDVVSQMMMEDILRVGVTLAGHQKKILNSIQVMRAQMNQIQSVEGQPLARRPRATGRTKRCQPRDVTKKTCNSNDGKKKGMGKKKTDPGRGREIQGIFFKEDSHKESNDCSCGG
Put plainly: Inhibition of human recombinant EphB2 at 500 nM related to control ULK1.

Test [4] addresses Tyrosine-protein kinase Fgr (Homo sapiens) (UniProt P09769). Put plainly: Inhibition of human recombinant FGR at 15 nM related to control ULK1.
For test [5], the target named is Serine/threonine-protein kinase 4 (MST1/STK4) (Homo sapiens) (UniProt Q13043). Put plainly: Inhibition of human recombinant MST1 at 15 nM in presence of ATP by radiometric assay relative to control.
Chain of Serine/threonine-protein kinase 4 (MST1/STK4) (Homo sapiens) (Q13043 whole entry, looked up): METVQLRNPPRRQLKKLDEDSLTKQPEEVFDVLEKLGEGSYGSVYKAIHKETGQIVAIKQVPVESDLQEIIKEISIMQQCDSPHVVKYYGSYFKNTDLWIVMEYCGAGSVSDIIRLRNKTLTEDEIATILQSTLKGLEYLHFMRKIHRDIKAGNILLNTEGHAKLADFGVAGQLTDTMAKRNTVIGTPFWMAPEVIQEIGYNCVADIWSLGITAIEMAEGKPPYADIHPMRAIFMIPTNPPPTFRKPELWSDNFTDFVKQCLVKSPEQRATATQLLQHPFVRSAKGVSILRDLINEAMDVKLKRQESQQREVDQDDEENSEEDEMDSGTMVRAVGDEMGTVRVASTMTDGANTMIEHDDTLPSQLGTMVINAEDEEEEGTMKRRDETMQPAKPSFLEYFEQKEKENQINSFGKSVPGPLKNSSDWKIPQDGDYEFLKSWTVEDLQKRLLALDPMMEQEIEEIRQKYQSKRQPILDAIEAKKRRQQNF

Chain of Tyrosine-protein kinase Fgr (Homo sapiens) (P09769 2-529 limits assumed): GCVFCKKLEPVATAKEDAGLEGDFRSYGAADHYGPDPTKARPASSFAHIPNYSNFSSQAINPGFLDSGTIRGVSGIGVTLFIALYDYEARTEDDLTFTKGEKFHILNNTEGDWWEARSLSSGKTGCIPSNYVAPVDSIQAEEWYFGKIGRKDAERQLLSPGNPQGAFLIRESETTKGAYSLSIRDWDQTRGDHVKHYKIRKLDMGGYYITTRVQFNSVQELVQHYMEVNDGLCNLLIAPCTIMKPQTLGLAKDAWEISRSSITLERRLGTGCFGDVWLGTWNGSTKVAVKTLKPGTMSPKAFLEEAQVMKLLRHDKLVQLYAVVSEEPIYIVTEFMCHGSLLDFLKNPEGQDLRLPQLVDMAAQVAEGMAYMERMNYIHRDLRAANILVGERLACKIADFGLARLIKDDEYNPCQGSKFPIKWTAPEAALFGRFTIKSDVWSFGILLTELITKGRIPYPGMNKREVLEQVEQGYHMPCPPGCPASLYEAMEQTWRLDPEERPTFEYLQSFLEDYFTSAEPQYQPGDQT

Broadly, the inhibition is the change of the read-out against control, counted positive when it falls. As to `CNC(=O)c1ccccc1Oc1nc(Nc2cc(OC)c(OC)c(OC)c2)ncc1Br`, the inhibition in test [1] was determined as 2%. Besides, the fold change (FC) in test [2] amounted to 0.09; in test [3], 0.2.
`CC(C)[C@H](NC(=O)c1cc(-c2cnn3cc(-c4ccc(OCCN5CCCCC5)cc4)cnc23)cs1)C(F)(F)F`: the fold change (FC) in test [4] is 0.49. Further, in test [5], the inhibition is 3%.
